Three compounds from patent US20110318271A1, “Arginase Inhibitors for the Treatment of Depression” (UNIVERSITY OF TARTU, priority 2008, published 2011) can be followed below.

The test system of this assay is Male C57BL/6/Bkl mice. The assay is described as follows: Forced swimming test in mice. The format is in vivo. The protocol:
Male C57BL/6/Bkl mice (Scanbur BK AB, Sweden) weighing 20-25 g were used. Mice were kept 10 per cage (21×37×15 cm) in an animal house at 20° C. in a 12 h light/dark cycle (light on at 7.00 a.m.). Tap water and food pellets were available ad libitum. The animals were kept for at least two weeks in the animal colony before entering experiments. The measurement of locomotor activity, and forced swimming test were carried out consecutively 45 and 55 min after treatment with study compounds, according to Volke V, Wegener G, Bourin […]. […] Behavioural Brain Research 2003; 140: 141-147. In a separate experiment arginase product L-ornithine or saline was injected 15 min prior to L-norvaline. The Forced Swimming test was performed as described by Porsolt et al Porsolt R D, Bertin A, Jalfre M. Behavioral despair in mice: a primary screening test for antidepressants. Arch Int Pharmacodyn Ther 1977; 229: 327-336. A glass cylinder with a diameter of 12 cm was filled with 8 cm water at 25° C. An animal was put into the water and its behaviour was videotaped during 6 min. An observer blind to treatment protocol counted the immobility time during the last 4 min of the 6 min test.

The mark [1] stands for this setting: Example 2, separate experiment (FIG. 2), 500 mg/kg each, L-ornithine or saline injected 15 min prior to L-norvaline, saline 199 sec.

For the compound `CCC[C@H](N)C(=O)O` [L-norvaline], the immobility time reads like this: (20 mg/kg i.p., 55 min after treatment, last 4 min of 6 min test, control 220 sec (FIG. 1)) 146 s; (100 mg/kg i.p., 55 min after treatment, last 4 min of 6 min test, control 220 sec (FIG. 1)) 107 s; (500 mg/kg i.p., 55 min after treatment, last 4 min of 6 min test, control 220 sec (FIG. 1)) 96 s; under setting [1], 127 s.

In turn, `NCCC[C@H](N)C(=O)O` [L-ornithine] displayed an immobility time under setting [1] of 214 s.

Turning to difluoromethylornithine [DFMO], the immobility time (400 mg/kg i.p., separate experiment, control 219 sec) amounted to 191 s. For the same compound, the “effect on immobility time” value (lower doses 10-100 mg/kg i.p.) was “ineffective”.
